From US10131635B2, “Compositions and methods of using the compositions for plaque softening” (ALUMEND, LLC, priority 2013, dated 2018)
“Also recorded” adds a separate entry of the source.

Assays:
[1] = Storage stability of the naphthalimide dimer (solution and powder); format: physicochemical
Excerpt: A preparative HPLC approach was used to isolate and specifically purify the compound of formula (V) dimer from the compound of formula (V) naphthalimide product produced from the ethanol crystallization. The HPLC method used was based on the purity method outlined above; however, method modifications were made to replace acetonitrile with ethanol and TFA with acetic acid in the mobile phase. The preparative separation utilized a C18 column (X-bridge, 10 μm, 19×250 mm, Waters). The mobile phase consisted of mobile phase A, 0.1% acetic acid (aq), and mobile phase B, 9:1 ethanol:water (0.1% v/v acetic acid). The column was pre-equilibrated at a starting mobile phase of 95% A:5% B for 20 minutes, at the start of the gradient was a 2 minute hold followed by a linear gradient to 90% B at 40 minutes and a 10 minute hold. An injection volume of 8.5 mL (12 mg/mL purified compound of formula (V)) and flow rate of 8.5 mL/minute were used as well as a detector wavelength of 440 nm. The compound of formula (V) fractions were collected and analyzed using the analytical purity method presented above. Fractions meeting a minimum purity criterion were combined and the solvent driven off by rotovapping the solution to dryness. […] Finally the product was quantitatively transferred from the round bottom flask to a freeze drying flask by dissolving the product in a minimal amount of deionized water. […]

[2] = tested on: hard and soft plaque of common and lower femoral artery; experiment: Tissue immersion: hardness of plaque by manipulation with a forcep; parameters: species or system human; conditions: PBS pH 7.4
Excerpt: A sample of human tissue from the common and lower femoral artery was received. It was stored in saline and refrigerated until use. Based upon visual and tactile observations, the arteries were approximately 7-8 mm in diameter and contained evidence of both hard and soft plaque. The soft plaque has a yellow fatty appearance that is distinguishable from the vessel wall. The hard plaque presents itself as hard pieces of material that can be pulled (with a forceps) from the soft plaque. Sections of the artery suitable for catheter work were segregated and stored in phosphate buffered saline (PBS), pH=7.4. From the remaining arterial sections, pieces of tissue containing both hard and soft plaque were removed. These pieces were either placed in a solution of PBS (pH=7.4), or dimeric naphthalimide, such as a compound of formula (V) (which is in PBS, pH=7.4). Prior to immersion in either solution the relative hardness of the plaque was evaluated via manual manipulation with a forcep. After a 5 minute soak in solution (typical exposure time), no difference in the samples soaked in PBS was noticed (control). […] The samples were then left in their respective solutions for an additional 90 minutes.

artery = experiment: Artery treated with composition, angioplasty and photoactivation: fissure observation; parameters: species or system human
Description: The tissue was an artery approximately 7.4 mm in diameter. An Ultra-thin SDS 8 mm×30 mm catheter was used to dilate the artery to 7.55 mm (approximately a 2% overstretch). A fissure or a possible dissection running down the length of the tissue sample was observed.
A section (6.5 cm in length) of artery was exposed to the composition for 5 minutes. An 80 mm catheter was used to impart a 25% overstretch to the artery. The angioplasty was followed by photoactivation at 1800 mW for 60 seconds using the same 80 mm catheter with a 60 mm light fiber centered in the catheter.
A catheter with an 80 mm treatment zone balloon was used however the photoactivating light fiber was only 60 mm in length. During activation it was noted that the light fiber was shifted distally in the catheter. This meant that the distal end of the artery was receiving photoactivation, however, the proximal end received little or no light. A fissure down the length of the artery was again observed.

[3] = tested on: plaque in diseased arteries from limb amputations; experiment: Plaque penetration: diseased arteries soaked with composition, balloon and light activation, visual and histological examination; parameters: species or system human; conditions: 2 mg/mL in PBS pH 7.4, 5 minute soak
Description: Diseased arteries were obtained from limb amputations (leg) due to advanced Periperal Arterial Disease (PAD) from patients at a regional hospital. The received arteries were evaluated and chosen such that the diseased section was of reasonable size to accommodate the treatment catheter balloon length being used. The catheter balloon diameter used was also matched to the diameter of the artery and capable of achieving a 1:1.25 (ratio of artery diameter to balloon diameter) overstretch. The artery was laid in a petri dish and an angioplasty balloon was inserted and inflated for 60 seconds to impart the desired overstretch. While the angioplasty balloon was inflated a permanent marker was used to define the treatment zone (where the overstretch was imparted by the balloon) on the outer surface of the artery. The angioplasty balloon was deflated and removed. The inner lumen of the diseased artery was exposed to a plaque softening composition comprising a compound of formula (V) naphthalimide formulation (2 mg/mL in phosphate buffered saline, pH=7.4) for a period of 5 minutes. For the purpose of filling the artery, one end was clamped, the artery was held upright and a syringe was used to dispense the naphthalimide solution until the inner lumen was filled. The open end of the artery was then clamped and the soaking period of 5 minutes commenced. […] Arteries were cut open lengthwise and the treated section was evaluated by visual examination.
Prior to cutting the artery for visual examination samples from the treated and untreated sections were collected and preserved for histological examination. […] After this time, samples were stored in a −80° C. freezer until ready for further analysis. […] The crystalline nature of hard plaque is readily visible without staining. Under this magnification the crystalline structure of the calcific plaque was readily visible, as shown in FIG. 8 the dark area between the two lighter colored areas of the media. […]

## NCCOCCOCCN1C(=O)c2cccc3c(NCCOCCOCCNc4ccc5c6c(cccc46)C(=O)N(CCOCCOCCN)C5=O)ccc(c23)C1=O [compound of formula (V)]
[1]; periods exceeding two years of storage in a dessicator at −20° C.
  degradation of dimer in powder form: no evidence of degradation
[1]; solution at pH 7.4
  stability of dimer solution (excellent stability for periods up to): up to 18 months
[2]; after a 5 minute soak
  relative hardness of plaque: slight softening
[2]; after an additional 90 minutes in solution
  relative hardness of plaque: significantly softer and more pliable
artery; angioplasty, then composition, distal part with adequate photoactivation
  repair of fissure: there appeared to be a seam indicating repair
artery; composition 5 minutes, then angioplasty 25% overstretch, photoactivation 1800 mW 60 seconds
  fissure in opened artery: no fissure observed
[3]; 447 nm 625 mW/cm 60 seconds
  observation of tacking of intimal flaps: tacking of intimal flaps
  visual observation of plaque softness in treated region: apparent softened plaque in the treated region; also recorded: more malleable
[3]; light activation
  calcium crystals under microscope, treated vs untreated sections: less evidence of calcium crystals
